# From patent US20240083857A1, “2-Methyl-Quinazolines” (Bayer Pharma Aktiengesellschaft, priority 2017, published 2024)
# Read-outs that look alike come from different tables or passages of the source.
# How the values were obtained:
# [1] = biological target: K-Ras^G12C : hSOS1 interaction (Homo sapiens, UniProt Q07889); assay: Biochemical assay 1: K-Ras^G12C interaction assay with hSOS1 (HTRF); type: binding
# [2] = biological target: human SOS1 (loading of human K-Ras^G12C-GDP with fluorescent GTP-analog) (Homo sapiens, UniProt Q07889); assay: Biochemical assay 3: K-Ras^G12C activation assay by hSOS1 (HTRF)
# [3] = biological target: Epidermal Growth Factor Receptor (EGFR) (Homo sapiens (Human), UniProt P00533); assay: EGFR kinase assay (TR-FRET); type: biochemical
# Chain of Epidermal Growth Factor Receptor (EGFR) (P00533 25-1210): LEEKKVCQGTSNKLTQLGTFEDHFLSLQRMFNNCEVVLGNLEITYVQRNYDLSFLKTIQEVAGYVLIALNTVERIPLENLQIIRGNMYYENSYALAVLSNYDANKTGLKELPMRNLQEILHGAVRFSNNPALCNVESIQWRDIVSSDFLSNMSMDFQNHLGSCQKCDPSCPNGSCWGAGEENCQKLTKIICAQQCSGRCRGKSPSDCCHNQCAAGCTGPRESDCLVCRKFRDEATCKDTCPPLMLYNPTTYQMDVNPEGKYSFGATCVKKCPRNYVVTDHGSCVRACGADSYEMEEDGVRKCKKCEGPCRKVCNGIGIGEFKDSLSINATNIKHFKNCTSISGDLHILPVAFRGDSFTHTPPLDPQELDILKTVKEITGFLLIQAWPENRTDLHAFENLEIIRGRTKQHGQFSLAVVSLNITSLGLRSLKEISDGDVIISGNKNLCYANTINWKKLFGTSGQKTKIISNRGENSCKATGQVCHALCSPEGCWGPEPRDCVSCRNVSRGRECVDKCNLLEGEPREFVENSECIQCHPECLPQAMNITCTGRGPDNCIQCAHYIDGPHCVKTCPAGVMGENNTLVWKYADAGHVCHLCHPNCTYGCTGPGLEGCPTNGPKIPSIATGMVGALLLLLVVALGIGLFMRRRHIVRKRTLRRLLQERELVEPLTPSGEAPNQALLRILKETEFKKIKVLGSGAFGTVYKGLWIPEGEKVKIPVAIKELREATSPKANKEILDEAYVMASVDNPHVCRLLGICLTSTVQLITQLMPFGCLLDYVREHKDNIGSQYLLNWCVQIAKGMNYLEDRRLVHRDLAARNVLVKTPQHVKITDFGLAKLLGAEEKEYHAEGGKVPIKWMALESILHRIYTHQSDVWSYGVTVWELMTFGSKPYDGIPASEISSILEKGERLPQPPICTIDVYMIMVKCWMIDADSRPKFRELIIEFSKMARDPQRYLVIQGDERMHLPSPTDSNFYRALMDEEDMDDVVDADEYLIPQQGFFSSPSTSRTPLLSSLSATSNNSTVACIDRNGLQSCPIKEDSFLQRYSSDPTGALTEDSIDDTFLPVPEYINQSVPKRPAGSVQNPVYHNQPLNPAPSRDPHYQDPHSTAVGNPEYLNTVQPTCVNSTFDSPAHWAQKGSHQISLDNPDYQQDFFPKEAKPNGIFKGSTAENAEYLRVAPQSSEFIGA
# Excerpt: EGFR inhibitory activity of compounds of the present invention was quantified employing the TR-FRET based EGFR assay as described in the following paragraphs.
# Epidermal Growth Factor Receptor (EGFR) affinity purified from human carcinoma A431 cells (Sigma-Aldrich, #E3641) was used as kinase. As substrate for the kinase reaction the biotinylated peptide biotin-Ahx-[…] (SEQ ID NO 5) (C-terminus in amid form) was used which can be purchased e.g. form the company Biosyntan GmbH (Berlin-Buch, Germany).
# For the assay 50 nL of a 100 fold concentrated solution of the test compound in DMSO was pipetted into a black low volume 384 well microtiter plate (Greiner Bio-One, Frickenhausen, Germany), 2 μL of a solution of EGFR in aqueous assay buffer [50 mM Hepes/HCl pH 7.0, 1 mM MgCl2, 5 mM MnCl2, 0.5 mM activated sodium ortho-vanadate, 0.005% (v/v) Tween-20]were added and the mixture was incubated for 15 min at 22° C. to allow pre-binding of the test compounds to the enzyme before the start of the kinase reaction. […] The concentration of EGFR was adjusted depending of the activity of the enzyme lot and was chosen appropriate to have the assay in the linear range, typical concentration were about 3 U/ml. The reaction was stopped by the addition of 5 μl of a solution of HTRF detection reagents (0.1 μM streptavidine-XL665 [Cis Biointernational] and 1 nM PT66-Tb-Cryptate, an terbium-cryptate labelled anti-phospho-tyrosine antibody from Cis Biointernational [instead of the PT66-Tb-cryptate PT66-Eu-Chelate from Perkin Elmer can also be used]) in an aqueous EDTA-solution (80 mM EDTA, 0.2% (w/v) bovine serum albumin in 50 mM HEPES pH 7.5).
# The resulting mixture was incubated 1 h at 22° C. to allow the binding of the biotinylated phosphorylated peptide to the streptavidine-XL665 and the PT66-Eu-Chelate. Subsequently the amount of phosphorylated substrate was evaluated by measurement of the resonance energy transfer from the PT66-Tb-Cryptate to the streptavidine-XL665. Therefore, the fluorescence emissions at 620 nm and 665 nm after excitation at 337 nm were measured in a HTRF reader, e.g. a Pherastar (BMG Labtechnologies, Offenburg, Germany) or a Viewlux (Perkin-Elmer). The ratio of the emissions at 665 nm and at […] was taken as the measure for the amount of phosphorylated substrate.
# [4] = biological target: human SOS1 (nucleotide exchange of K-Ras^G12C) (Homo sapiens, UniProt Q07889); assay: Biochemical assay 2: K-Ras^G12C activation assay by hSOS1 at high GTP concentration (HTRF); details: E-notation values; unit inferred; 50 μM GTP; read-out: Assay 2 (KRAS-Activation, high GTP) IC50
# [5] = read-out: Assay 1 (KRAS-SOS Interaction) activity expressed as IC50
# [6] = values given in μM, read-out: EGFR kinase inhibition IC50
# [7] = no GTP, read-out: Assay 3 (KRAS-Activation by SOS no GTP) activity expressed as IC50
# [8] = E-notation values, unit inferred, read-out: EGFR-assay IC50
# [9] = E-notation values, unit inferred, read-out: Assay 3 (KRAS-Activation) IC50
smiles,measurement,setting,value
"COc1cc2nc(C)nc(NC(C)c3ccc(Br)o3)c2cc1OC (stereo not drawn) [Example 208, N-[1-(5-bromofuran-2-yl)ethyl]-6,7-dimethoxy-2-methylquinazolin-4-amine]",IC50,[1]; [5],5970 nM
same,inhibition at 20 µM,"[2]; read-out: Assay 3 (KRAS-Activation by SOS no GTP) activity expressed as % inhibition at 20 μM, no GTP, at 20 μM",47%
same,IC50,[3]; [6],> 20 µM
"COc1cc2nc(C)nc(NC(C)c3ccc(Br)s3)c2cc1OC (stereo not drawn) [Example 209, N-[1-(5-bromothiophen-2-yl)ethyl]-6,7-dimethoxy-2-methylquinazolin-4-amine]",IC50,[1]; [5],1080 nM
same,IC50,[2]; [7],4.95 µM
same,IC50,[3]; [6],> 20 µM
"COc1cc2nc(C)nc(NC(C)c3cccc4ncccc34)c2cc1OC (stereo not drawn) [Example 212, 6,7-dimethoxy-2-methyl-N-[1-(quinolin-5-yl)ethyl]quinazolin-4-amine]",IC50,[1]; [5],646 nM
same,IC50,[2]; [7],2.64 µM
same,IC50,[3]; [6],> 20 µM
"Cc1nc(NC(C)c2ccc(-c3ccccc3CN(C)C)s2)c2cc([N+](=O)[O-])ccc2n1 (stereo not drawn) [Example 421, N-[1-(5-{2-[(dimethylamino)methyl]phenyl}thiophen-2-yl)ethyl]-2-methyl-6-nitroquinazolin-4-amine]",IC50,"[1]; E-notation values, unit inferred, read-out: Assay 1 (KRAS-SOS interaction) IC50",145 nM
same,IC50,[4],0.222 µM
same,IC50,[3]; [8],> 20 µM
"Cc1nc(NC(C)c2ccc(Br)s2)c2cc([N+](=O)[O-])ccc2n1 (stereo not drawn) [Example 452, N-[1-(5-bromothiophen-2-yl)ethyl]-2-methyl-6-nitroquinazolin-4-amine]",IC50,[4],> 20 µM
same,IC50,[2]; [9],> 20 µM
same,IC50,[3]; [8],> 20 µM
"COC(=O)c1ccc2c(N[C@H](C)c3cccc(Cl)c3)nc(C)nc2c1 [Example 453, methyl 4-{[(1R)-1-(3-chlorophenyl)ethyl]amino}-2-methylquinazoline-7-carboxylate]",IC50,[4],> 20 µM
same,IC50,[2]; [9],> 20 µM
same,IC50,[3]; [8],> 20 µM
